{"source": "paper PMC10897476", "about": "“Pyridylpiperazine efflux pump inhibitor boosts in vivo antibiotic efficacy against K. pneumoniae” (EMBO Molecular Medicine, 2023)", "type_in_all_cases": "cell-based, Klebsiella pneumoniae", "key": {"[1]": {"system": "K. pneumoniae RamR^mut (K124*stop)", "assay": "Checkerboard assay levofloxacin x EPI, RamR mutant", "settings": "for checkerboard growth readout: ATCC43816 ramRmut, EPI 0 µM; for MIC: Klebsiella pneumoniae", "method": "(§1) MIC experiments were carried out according to the CLSI guidelines (CLSI [2023]). Overnight cultures were diluted to an OD600 = 0.001 in CAMHB followed by addition of efflux pump inhibitors (EPIs) at a final concentration of 100 µM. […] Plates were incubated at 37 °C for up to 20 h. Bacterial viability was evaluated using the resazurin microtitre assay (REMA) and measured by fluorescence using a Tecan Spaert multimode plate reader (Ex: 530 nm Em: 590 nm). MICs were defined as the concentration that prevented 90% of resazurin turnover compared to the non-treated bacteria.\n(§2) Bacterial suspensions, incubation and plate readouts were carried out as described above."}, "[2]": {"system": "K. pneumoniae ATCC 43816 (WT)", "assay": "Checkerboard assay levofloxacin x EPI, WT strain", "settings": "for checkerboard growth readout: ATCC43816 WT, EPI 0 µM; for MIC: Klebsiella pneumoniae; for Median REMA values (percentage resazurin turnover): median n=3; for Median REMA values (percentage resazurin turnover) / percentage resazurin turnover: listed as Lev; for percentage resazurin turnover: individual replicates", "method": "as §1, §2"}, "K. pneumoniae AcrB^V448E [3]": {"system": "K. pneumoniae AcrB^V448E", "assay": "MIC of antibiotics with and without EPI (REMA), AcrB V448E mutant", "settings": "for Minimum Inhibitory Concentration: K. pneumoniae AcrB^V448E", "procedure,_shortened": "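K. pneumoniae ATCC 43816 carrying single chromosomal acrB or ramR mutations introduced by allelic exchange, diluted to OD600 = 0.001 in CAMHB with EPI at final 100 µM. Incubated 37 °C up to 20 h; viability by resazurin fluorescence (Ex 530/Em 590 nm).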"}, "[4]": {"system": "K. pneumoniae AcrB^V448E RamR^mut", "assay": "Checkerboard assay levofloxacin x EPI, double mutant", "settings": "ATCC43816 AcrBV448E ramRmut, EPI 0 µM", "method": "as §1, §2"}, "K. pneumoniae AcrB^V448E [5]": {"system": "K. pneumoniae AcrB^V448E", "assay": "Checkerboard assay levofloxacin x EPI, AcrB V448E mutant", "settings": "ATCC43816 AcrBV448E, EPI 0 µM", "method": "as §1, §2"}}, "note": "Where “and” joins values, the source holds several entries; their conditions need not be identical. Equal entries are not always repeated. Where two headings read alike, the source gives them in different places. Marks after values point to notes of the source that are not given here."}
{"compound": "C[C@H]1COc2c(N3CCN(C)CC3)c(F)cc3c(=O)c(C(=O)O)cn1c23", "note": "[Levofloxacin]", "values": [{"measurement": "checkerboard growth readout", "setting": "[1]; levofloxacin 4 ng/mL", "value": "106 and 109"}, {"measurement": "checkerboard growth readout", "setting": "[1]; levofloxacin 8 ng/mL", "value": "110 and 118"}, {"measurement": "checkerboard growth readout", "setting": "[1]; levofloxacin 15.625 ng/mL", "value": "111 and 109"}, {"measurement": "checkerboard growth readout", "setting": "[1]; levofloxacin 62.5 ng/mL", "value": "111 and 123"}, {"measurement": "checkerboard growth readout", "setting": "[1]; levofloxacin 250 ng/mL", "value": "61 and 91"}, {"measurement": "MIC", "setting": "[1]; read-out: levofloxacin MIC (checkerboard)", "value": 0.5, "unit": "µg/mL"}, {"measurement": "MIC", "setting": "[1]; read-out: levofloxacin boosted MIC (checkerboard)", "value": 0.016, "unit": "µg/mL"}, {"measurement": "checkerboard growth readout", "setting": "[2]; levofloxacin 4 ng/mL", "value": "114 and 99"}, {"measurement": "checkerboard growth readout", "setting": "[2]; levofloxacin 8 ng/mL", "value": "102 and 104"}, {"measurement": "checkerboard growth readout", "setting": "[2]; levofloxacin 15.625 ng/mL", "value": "112 and 95"}, {"measurement": "checkerboard growth readout", "setting": "[2]; levofloxacin 31.25 ng/mL", "value": "88 and 69"}, {"measurement": "MIC", "setting": "[2]; ATCC43816, read-out: levofloxacin MIC (checkerboard)", "value": 0.0625, "unit": "µg/mL"}, {"measurement": "MIC", "setting": "[2]; ATCC43816, read-out: levofloxacin boosted MIC (checkerboard)", "value": 0.016, "unit": "µg/mL"}, {"measurement": "Median REMA values (percentage resazurin turnover)", "setting": "[2]; Lev 0.24 ng/mL + EPI 0.00 uM", "value": "82% and 111%"}, {"measurement": "Median REMA values (percentage resazurin turnover)", "setting": "[2]; Lev 0.49 ng/mL + EPI 0.00 uM", "value": "103% and 87%"}, {"measurement": "Median REMA values (percentage resazurin turnover)", "setting": "[2]; Lev 0.98 ng/mL + EPI 0.00 uM", "value": "102% and 101%"}, {"measurement": "percentage resazurin turnover", "setting": "[2]; Lev 1.95 ng/mL + EPI 0.00 uM", "value": "92% and 97%"}, {"measurement": "Median REMA values (percentage resazurin turnover)", "setting": "[2]; Lev 1.95 ng/mL + EPI 0.00 uM", "value": "101% and 92%"}, {"measurement": "percentage resazurin turnover", "setting": "[2]; Lev 3.91 ng/mL + EPI 0.00 uM", "value": "128% and 114% and 108%"}, {"measurement": "Median REMA values (percentage resazurin turnover)", "setting": "[2]; Lev 3.91 ng/mL + EPI 0.00 uM", "value": "99% and 114%"}, {"measurement": "percentage resazurin turnover", "setting": "[2]; Lev 7.81 ng/mL + EPI 0.00 uM", "value": "102% and 106% and 72%"}, {"measurement": "Median REMA values (percentage resazurin turnover)", "setting": "[2]; Lev 7.81 ng/mL + EPI 0.00 uM", "value": "104% and 102%"}, {"measurement": "percentage resazurin turnover", "setting": "[2]; Lev 15.63 ng/mL + EPI 0.00 uM", "value": "100% and 112% and 143%"}, {"measurement": "Median REMA values (percentage resazurin turnover)", "setting": "[2]; Lev 15.63 ng/mL + EPI 0.00 uM", "value": "95% and 112%"}, {"measurement": "percentage resazurin turnover", "setting": "[2]; Lev 31.25 ng/mL + EPI 0.00 uM", "value": "88% and 76% and 139%"}, {"measurement": "Median REMA values (percentage resazurin turnover)", "setting": "[2]; Lev 31.25 ng/mL + EPI 0.00 uM", "value": "69% and 88%"}, {"measurement": "percentage resazurin turnover", "setting": "[2]; Lev 62.50 ng/mL + EPI 0.00 uM", "value": "-0.208% and 0.0384% and 0.176%"}, {"measurement": "Median REMA values (percentage resazurin turnover)", "setting": "[2]; Lev 62.50 ng/mL + EPI 0.00 uM", "value": "-0.588% and 0.0384%"}, {"measurement": "percentage resazurin turnover", "setting": "[2]; Lev 500.00 ng/mL + EPI 0.00 uM", "value": "-0.171% and 0.0154% and 0.238%"}, {"measurement": "Median REMA values (percentage resazurin turnover)", "setting": "[2]; Lev 500.00 ng/mL + EPI 0.00 uM", "value": "-0.604% and 0.0154%"}, {"measurement": "percentage resazurin turnover", "setting": "[2]; Lev 1000 ng/mL + EPI 0.00 uM", "value": "-0.203% and 0.204% and -0.0468%"}, {"measurement": "Median REMA values (percentage resazurin turnover)", "setting": "[2]; Lev 1000 ng/mL + EPI 0.00 uM", "value": "-0.268% and -0.0468%"}, {"measurement": "Minimum Inhibitory Concentration", "setting": "K. pneumoniae AcrB^V448E [3]; + 100 µM 1'", "value": 0.03, "unit": "mg/L"}, {"measurement": "Minimum Inhibitory Concentration", "setting": "K. pneumoniae AcrB^V448E [3]; + 100 µM 5", "value": 0.03, "unit": "mg/L"}, {"measurement": "Minimum Inhibitory Concentration", "setting": "K. pneumoniae AcrB^V448E [3]; + 100 µM PAβN", "value": "0.02^# mg/L"}, {"measurement": "MIC", "setting": "K. pneumoniae AcrB^V448E [3]; Klebsiella pneumoniae, read-out: Minimum Inhibitory Concentration", "value": 0.04, "unit": "µg/mL"}, {"measurement": "checkerboard growth readout", "setting": "[4]; levofloxacin 4 ng/mL", "value": "105 and 97"}, {"measurement": "checkerboard growth readout", "setting": "[4]; levofloxacin 8 ng/mL", "value": "113 and 94"}, {"measurement": "checkerboard growth readout", "setting": "[4]; levofloxacin 15.625 ng/mL", "value": "114 and 99"}, {"measurement": "checkerboard growth readout", "setting": "[4]; levofloxacin 31.25 ng/mL", "value": "121 and 95"}, {"measurement": "checkerboard growth readout", "setting": "[4]; levofloxacin 62.5 ng/mL", "value": "141 and 104"}, {"measurement": "checkerboard growth readout", "setting": "[4]; levofloxacin 250 ng/mL", "value": "148 and 137"}, {"measurement": "checkerboard growth readout", "setting": "[4]; levofloxacin 500 ng/mL", "value": "131 and 124"}, {"measurement": "checkerboard growth readout", "setting": "K. pneumoniae AcrB^V448E [5]; levofloxacin 4 ng/mL", "value": "107 and 101"}, {"measurement": "checkerboard growth readout", "setting": "K. pneumoniae AcrB^V448E [5]; levofloxacin 8 ng/mL", "value": "111 and 91"}, {"measurement": "checkerboard growth readout", "setting": "K. pneumoniae AcrB^V448E [5]; levofloxacin 15.625 ng/mL", "value": "117 and 89"}, {"measurement": "checkerboard growth readout", "setting": "K. pneumoniae AcrB^V448E [5]; levofloxacin 31.25 ng/mL", "value": "91 and 81"}]}
